Data reported in patent US20250332139A1, “PS[…] AND THEIR USE FOR TREATING […] AND NE[…] DISORDERS” (Transcend Therapeutics, Inc., priority 2021, published 2025).
Like-named read-outs stand apart in the source and are kept apart here.

How the values were obtained:
Sprague Dawley rats [1] = assay: Forced Swim Test (FST); format: in vivo, rat
From the text: The Forced Swim Test (FST) is a classic, and the most used preclinical behavioral assay to screen compounds with antidepressant-like activity and has high predictive and face validity (Porsolt et al. (1977) Nature 266:730; Borsini and Meli (1988) Psychopharmacology 94:147). The premise of the FST is that when rats are placed into a cylinder filled with water, they will initially try to escape, but over time will become immobile. This increased immobility reflects behavioral despair, modeling a depressive-like state.
Forced Swim Test (FST): In the FST trial, rats were placed in a circular plexiglass container filled with water, with no means of escape. Water temperature was maintained at 22-25° C. and changed for every animal. After an acclimation period, rats were timed for inactivity (failure to struggle), activity, swim time and climbing time. Day 1 consisted of a 15 min acclimation trial, and Day 2 (24 h later) consisted of the 5 min test. A time sampling procedure was employed where animals were observed every 5 sec and scored for immobility, swimming, or climbing. Fluoxetine (10 mg/kg, IP, Sigma Aldrich) or 0.9% sterile saline vehicle (vehicle 3X group) were administered 23.5, 5, and 1 h before testing in the FST. […] The experimenter was blinded to treatment.
Forced Swim Test: In the FST trial, rats were placed in a circular plexiglass container filled with water, with no means of escape. Water temperature was maintained at 22-25° C. and changed for every animal. After an acclimation period, rats were timed for inactivity (failure to struggle), activity, swim time and climbing time. Day 1 consisted of a 15 min acclimation trial, and Day 2 (24 h later) consisted of the 5 min test. A time sampling procedure was employed where animals were observed every 5 sec and scored for immobility, swimming, or climbing. Fluoxetine (10 mg/kg, IP, Sigma Aldrich) or 0.9% sterile saline vehicle (vehicle 3X group) were administered 23.5, 5, and 1 h before testing in the FST. 2C-B (2.5, 10, or 20 mg/kg, IP, Cayman Chemical) or 0.9% saline vehicle (vehicle 1X group) were administered 30 min prior to FST testing. The experimenter was blinded to treatment.
Drug Treatment: Fluoxetine (10 mg/kg, IP, Sigma Aldrich) or 0.9% sterile saline vehicle were administered 23.5, 5, and 1 h before testing in the FST. […] Control animals received fluoxetine alone, methylone alone, or saline vehicle.
Forced Swim Test: In the FST trial, rats were placed in a circular plexiglass container filled with water, with no means of escape. Water temperature was maintained at 22-25° C. and changed for every animal. After an acclimation period, rats were timed for inactivity (failure to struggle), activity, swim time and climbing time. The experimenter and scorer were blind to treatment group. Day 1 consisted of a 15 min acclimation trial, and Day 2 (24 h later) consisted of the 5 min test. A time sampling procedure was employed where animals were observed every 5 sec and scored for immobility, swimming, or climbing.
The FST was performed and scored by an experimenter blind to treatment group according to standard protocols and based on a “modified FST” procedure (Slattery and Cryan (2012) Nat Protoc, 7:1009). Briefly, rats were placed in a circular plexiglass container (29.2 cm diameter, 49.5 cm height) filled with water to a depth of 30 cm so rats could not support themselves by touching the bottom of the tank. Water was maintained at 22-25° C. and was changed for every animal. Day 1 (Training) consisted of a 15 min acclimation trial, and Day 2 (Testing, 24 h later) consisted of the 5 min test. A time sampling procedure was employed where animals were observed every 5 seconds for the duration of the test session (60 counts or 5 minutes) and scored for immobility (defined as the failure to struggle), swimming (defined as a circular movement around the tank), or climbing (defined as an upwards escape behavior). […]

C57Bl/6 mice = assay: Cisplatin CIPN model, von Frey test; format: in vivo, mouse
Description: Cisplatin, a platinum-based chemotherapy agent has been used to reduce pain thresholds in a model of CIPN. Effects of acute (single higher dose) or sub-chronic (7 days repeated lower dose) 2C-B on pain thresholds were investigated in cisplatin-treated animals compared with vehicle or cisplatin-treated controls.
Methods: Male C57Bl/6 mice aged 12-16 weeks were used. Cisplatin (2.5 mg/kg) or vehicle was administered on days 1-5 and 11-15.
Vehicle, sub-chronic 2C-B (5 mg/kg once daily days 17-23) or acute 2C-B (20 mg/kg once on day 17) was then administered IP (N=16-18/group). VonFrey testing took place on day 17 (30 min post-dose) and days 21 and 24 (pre-dose) to monitor the effects of 2C-B in cisplatin treated animals, compared with animals receiving cisplatin+vehicle or vehicle+vehicle.
For von Frey measurements, animals were placed into wire bottom cubicles with opaque Plexiglas walls, allowing access to the underside of their paws. Animals were habituated to this environment for at least 30 minutes before the start of the von Frey filament application. Static allodynia was measured using Semmes-Weinstein von Frey filaments (Stoelting, Wood Dale, IL). Mechanical allodynia was tested by touching the plantar surface of the animals' right and left hind paws with von Frey filaments which deliver a calibrated amount of force (0.07, 0.16, 0.4, 0.6. 1.0, 2.0, 4.0, 6.0 g). […]

experienced drug users = details: cited from earlier work
Sprague Dawley rats [2] = details: previous literature reports (Hibicke 2020; Yang 2013; Tizabi 2012); cited from earlier work
C57BL/6J mice = assay: Fear extinction paradigm (PTSD mouse model); format: in vivo; details: MBDB 5 mg/kg IP, day 2
From the text: Effective PTSD treatments facilitate the disassociation between a traumatic memory and the patient's fear response, making cues for the traumatic memory evoke less of a fear response. This is modeled in the mouse fear extinction paradigm (see FIG. 9A) which takes place over 3 days. On day 1 (fear conditioning), mice are trained to acquire a “traumatic memory,” namely associating the conditioned stimulus (CS, tone) to the unconditioned stimulus (US, foot shock). On day 2 (extinction training), they are trained to forget the traumatic memory association by presenting the CS 6 times (with no US) in a novel environment. On day 3 (extinction recall), the mice are “asked” if that tone (CS) still elicits a fearful response, as measured by the time spent freezing when the tone is presented. Less time freezing means better extinction recall. Drugs that improve extinction recall reduce freezing time on day 3, and, therefore, show potential as a PTSD treatment.
Methods: Cued fear conditioning was performed in C57BL/6J mice. On day 1, animals were placed in the chambers and presented with a training session (CS-US pairing). The training consisted of a 2-minute habituation followed by a 30-second, 80 dB tone; during the last 2 seconds of the tone animals received a 1 mA foot shock. This US-CS procedure occurred once for a total of one paired presentation of tone and shock. Freezing behavior (immobility) was recorded in 5-10-see intervals during the session. Percent baseline freezing behavior was determined in the 2-minute habituation period. On day 3, animals were placed in context B, in which tactile and odor cues differed from context A. Following a 2 minute acclimation period animals received 4×30 sec presentations of the CS (tone) in the absence of the US (footshock), with a 45 sec interval between presentations. Freezing was recorded in 5-10-see intervals to measure baseline freezing response to the altered context, and freezing response to each tone cue presentation. […] On day 4 (Post-Extinction Testing in Drug-Free State), animals were placed in Context B. Following a 2 min acclimation period, animals received 4×30 sec extinction tone duration presentations of the CS (tone) in the absence of the US (footshock), with a 45 sec interval between presentations. Freezing was recorded in 5-10-see intervals to measure baseline freezing response to the altered context, and freezing response to each tone cue presentation.

[3] = test system: serotonergic terminals in the cortex and hippocampus; details: (±)-MBDB.HCl 25 mg/kg IP every 12 hours for 4 days, 2 weeks post-treatment; cited from earlier work
[4] = target: T1, Human serotonin 5HT2B receptor (Homo sapiens, UniProt P41595); assay: 5HT2B competitive radioligand binding; details: ratio of Ki values
T1 construct: host or cells: receptor-expressing membranes
Description: Human serotonin 5HT2B receptor membrane preparations were divided into aliquots. On the day of the assay, membranes were diluted at 1:200 in incubation buffer. […] To each well was added 150 μL membrane preparation, 50 μL test compound, non-specific compound, or buffer alone, as well as 50 μL radioligand. The plate was incubated at 35° C. for 90 minutes with gentle agitation. […] For each concentration of drug, non-specific binding was subtracted from total binding to give specific binding. […] Ki was subsequently calculated using the ChengPrusoff equation.

T1 sequence (P41595 whole entry): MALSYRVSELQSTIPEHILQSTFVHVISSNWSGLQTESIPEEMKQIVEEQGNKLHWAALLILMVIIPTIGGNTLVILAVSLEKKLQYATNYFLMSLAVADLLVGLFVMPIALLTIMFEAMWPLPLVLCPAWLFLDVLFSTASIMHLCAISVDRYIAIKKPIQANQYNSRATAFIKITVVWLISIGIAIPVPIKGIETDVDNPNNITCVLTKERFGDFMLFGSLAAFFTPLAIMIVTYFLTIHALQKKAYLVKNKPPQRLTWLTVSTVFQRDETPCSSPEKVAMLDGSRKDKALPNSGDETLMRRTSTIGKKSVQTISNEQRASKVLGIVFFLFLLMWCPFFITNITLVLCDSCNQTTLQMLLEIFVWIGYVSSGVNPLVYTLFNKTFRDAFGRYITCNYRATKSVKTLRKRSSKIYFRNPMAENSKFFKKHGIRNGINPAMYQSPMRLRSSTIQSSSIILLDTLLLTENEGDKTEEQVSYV

In the case of `COc1cc(CCN)c(OC)cc1Br` [2C-B, 4-Bromo-2,5-dimethoxyphenethylamine], the climbing (Sprague Dawley rats [1]; 2C-B high-dose group (20 mg/kg IP)) is reported as “significantly decreased”, the swimming (Sprague Dawley rats [1]; 2C-B single dose IP 30 min before test) is reported as “significant increase in swimming” and the “effect of repeated doses” value (C57Bl/6 mice; 5 mg/kg 2C-B once daily days 17-23) is reported as “sustained beneficial effect”. For the same compound, the “pain thresholds in cisplatin-treated animals” value (C57Bl/6 mice; single dose 5 or 20 mg/kg IP, within 30 min, day 17) was “significantly increased” and the adverse effects (experienced drug users; self-administered 2C-B, 10 to 20 mg) was “no serious adverse effects”.
In the case of `CCN(CC)C(=O)[C@@H]1C=C2c3cccc4[nH]cc(c34)C[C@H]2N(C)C1` [LSD, lysergic acid-N,N-diethylamide], the reduction in immobility (Sprague Dawley rats [2]) is given as 38%.
With `CCC(Cc1ccc2c(c1)OCO2)NC` (centres unmarked) [MBDB, N-methyl-1-(1,3-benzodioxol-5-yl)-2-aminobutane] the immobility (Sprague Dawley rats [1]; MBDB 5-30 mg/kg IP, 30 min before test) was “significantly reduced immobility”, the “extinction acquisition, first trial of extinction training” value (C57BL/6J mice) was “improved extinction acquisition” and the locomotor activity (C57BL/6J mice) was “small, but significant increase in locomotor activity”. For the same compound, the “serotonergic terminals destroyed in the cortex and hippocampus” value [3] was 55-60% and the adverse effects (experienced drug users; self-administered MBDB, 100 to 300 mg) was “no serious adverse effects”.
For `CC(N)Cc1ccc2c(c1)OCO2` (centres unmarked) [MDA], the “times greater affinity for the 5HT2B receptor compared with methylone” value [4] was 37 times.
With `CNCCC(Oc1ccc(C(F)(F)F)cc1)c1ccccc1` (centres unmarked) [fluoxetine, reference compound] the swimming behavior (Sprague Dawley rats [1]; Example 8, fluoxetine 10 mg/kg IP x3) was “significantly increased swimming behavior”.
For `CN(C)CCc1c[nH]c2cccc(OP(=O)(O)O)c12` [psilocybin], the reduction in immobility (Sprague Dawley rats [2]) is given as 67%.
